Experimental findings from patent US6858640B2, “Tricyclic indole compounds having affinity for serotonin receptor” (Shionogi & Co., Ltd., priority 2000, dated 2005) are described below.

What is called Ki is a measure of affinity in units of concentration, obtained from inhibition or displacement. The term melting point denotes the temperature of the solid-liquid transition.

Each structure is given as a SMILES string. Where two headings read alike, the source gives them in different places.

One data set addresses T1, 5HT1A (Rattus norvegicus, UniProt P19327).
T1 construct: prepared from brain of rats or HEK293 cells, which expressed the receptor; from tissue; host or cells: rat brain membranes
T1 sequence (P19327 1-422): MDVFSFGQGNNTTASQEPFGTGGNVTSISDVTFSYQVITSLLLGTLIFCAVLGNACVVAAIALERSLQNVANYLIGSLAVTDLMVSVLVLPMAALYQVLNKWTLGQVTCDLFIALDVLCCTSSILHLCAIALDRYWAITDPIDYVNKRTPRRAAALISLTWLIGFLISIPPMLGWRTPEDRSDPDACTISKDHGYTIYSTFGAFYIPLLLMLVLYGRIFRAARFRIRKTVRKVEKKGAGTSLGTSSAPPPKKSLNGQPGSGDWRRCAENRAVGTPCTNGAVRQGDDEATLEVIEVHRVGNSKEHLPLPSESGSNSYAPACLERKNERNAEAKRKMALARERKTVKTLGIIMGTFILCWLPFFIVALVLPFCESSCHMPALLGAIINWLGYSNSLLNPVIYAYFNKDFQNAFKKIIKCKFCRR
Description: radioligand binding to serotonin receptor, cell membrane sample, Ki by Cheng-Prusoff. The method, then:
(§1) A mixture of radioactive ligands and some cardinal numbers of test compounds was incubated with a sample of cell membrane, which was prepared from brain of rats or HEK293 cells, which expressed the receptor, under the following conditions. Then, the sample was filtered by suction on a Whatman GF/C. Radioactivity on the filter was encountered by the use of a liquid scintillation counter. 50% Inhibitory concentration values (IC50 values) of each selective binding were calculated for test compounds and the Ki value was obtained by applying an equation of Cheng-Prusoff [Biochem. Pharmacol. 22 (1973) 3099-3108] Ki=IC50/(1+[L]/Kd).

For a further data set, the target named is T2, 5HT6 (Homo sapiens, UniProt P50406).
T2 construct: expressed in transfected cells; host or cells: HEK293
T2 sequence (P50406 whole entry, species assumed): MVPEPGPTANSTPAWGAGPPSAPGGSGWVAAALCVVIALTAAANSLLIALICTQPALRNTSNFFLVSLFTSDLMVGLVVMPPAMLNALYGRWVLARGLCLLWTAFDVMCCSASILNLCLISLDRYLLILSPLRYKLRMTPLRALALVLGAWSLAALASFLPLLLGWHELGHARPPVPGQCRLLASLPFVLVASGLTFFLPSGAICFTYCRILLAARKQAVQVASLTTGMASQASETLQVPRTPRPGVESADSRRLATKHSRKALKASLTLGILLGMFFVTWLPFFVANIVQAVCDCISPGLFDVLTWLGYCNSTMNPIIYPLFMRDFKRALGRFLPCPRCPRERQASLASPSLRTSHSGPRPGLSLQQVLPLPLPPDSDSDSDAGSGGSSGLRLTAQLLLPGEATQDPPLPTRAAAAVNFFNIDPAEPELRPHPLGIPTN
Described as above. The method, then: as §1

A further data set deals with 5HT7 (Homo sapiens, UniProt P34969). Described as above. As to the method: as §1
Sequence of 5HT7 (P34969 whole entry, species assumed): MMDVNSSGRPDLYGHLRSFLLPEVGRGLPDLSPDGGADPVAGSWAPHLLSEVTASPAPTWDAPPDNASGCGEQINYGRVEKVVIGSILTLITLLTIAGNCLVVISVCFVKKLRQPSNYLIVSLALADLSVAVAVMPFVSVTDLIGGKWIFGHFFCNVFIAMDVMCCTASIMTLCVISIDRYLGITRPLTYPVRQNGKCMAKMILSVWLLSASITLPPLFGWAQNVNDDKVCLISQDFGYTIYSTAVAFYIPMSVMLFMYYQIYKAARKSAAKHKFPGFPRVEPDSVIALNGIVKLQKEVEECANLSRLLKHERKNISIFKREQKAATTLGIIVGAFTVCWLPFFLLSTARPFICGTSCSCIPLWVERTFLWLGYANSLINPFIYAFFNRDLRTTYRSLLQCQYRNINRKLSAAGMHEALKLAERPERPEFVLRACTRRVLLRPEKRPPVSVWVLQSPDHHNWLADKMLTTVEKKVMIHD
[1] abbreviates: rat hippocampus membranes, 1 nM [3H] 8-OH-DPAT, 25° C. 30 min, read-out: Ki value (nM) ±SE 5-HT1A.
[2] abbreviates: Human 5-HT7 (HEK293), 0.5 nM [3H] 5CT, 25° C. 120 min, read-out: Ki value (nM) ±SE 5-HT7.

`CNC1COc2cccc3[nH]cc(c23)C1` (stereo not shown) [Compound 19-2]: the results for the Ki on 5HT1A and at 5HT6 were 23 nM and 97 nM, respectively.
`CCCNC1COc2cccc3[nH]cc(c23)C1` (stereo not shown) [Compound 19-3]: the melting point fell in the range of 137 to 139 °C. At 5HT1A, the affinity corresponds to a Ki of 5.7 nM. The compound further had a Ki on 5HT7 of 46 nM.
Regarding `CNC1COc2c(Br)ccc3[nH]cc(c23)C1` (stereo not shown) [Compound 19-15], the Ki stood at 7.7 nM on 5HT1A, 4.6 nM on 5HT6 and 16 nM on 5HT7.
On to `CN(C)C1COc2c(Br)ccc3[nH]cc(c23)C1` (stereo not shown) [Compound 19-16], for which the melting point was in the range of 142 to 143 °C. The compound also came in with a Ki at 5HT1A of 58 nM. This compound also had a Ki at 5HT6 of 62 nM. At 5HT7, this compound displayed a Ki of 86 nM.
For `CN(C)C1COc2cccc3c2c(cn3S(=O)(=O)c2cccs2)C1` (stereo not shown) [Compound 20-9], the Ki was 86 nM on 5HT1A and 78 nM on 5HT6.
On the same counts, the results for `CN(C)C1COc2cccc3c2c(cn3S(=O)(=O)c2ccc(C(F)(F)F)cc2)C1` (stereo not shown) [Compound 20-10] are 95 nM and 45 nM.
With `O=S(=O)(c1ccccc1)n1cc2c3c(cccc31)OCC(N1CCCC1)C2` (stereo not shown) [Compound 36-1, 2-Benzenesulfonyl-8-pyrrolidin-1-yl-2,7,8,9-tetrahydro-6-oxa-2-azabenzo[cd]azulene], the figures for the Ki on 5HT1A (setting [1]) and at 5HT6 were 29 nM and 65 nM, respectively.
`CCN(CC)C1COc2cccc3c2c(cn3S(=O)(=O)c2ccccc2)C1` (stereo not shown) [Compound 36-3]: the melting point fell in the range of 106 to 108 °C. Moreover, the Ki on 5HT1A (setting [1]) is 58 nM. On 5HT6, this compound returned a Ki of 4.2 nM.
Compound `CN(C)C1COc2c(-c3ccccc3)ccc3[nH]cc(c23)C1` (stereo not shown) [Compound 38, Dimethyl-(5-phenyl-2,7,8,9-tetrahydro-6-oxa-2-azabenzo[cd]azulen-8-yl)amine] gave a melting point of 168 to 170 °C. Besides, the Ki on 5HT1A (setting [1]) was found to be 83 nM. Also, at 5HT7 (setting [2]), the Ki was 22 nM.
Take `COC(=O)/C=C/c1ccc2[nH]cc3c2c1OCC(N(C)C)C3` (stereo not shown) [Compound 39, (E)-3-(8-Dimethylamino-2,7,8,9-tetrahydro-6-oxa-2-azabenzo[cd]azulen-5-yl)acrylic acid methyl ester]: the Ki turned out to be 27 nM at 5HT1A (setting [1]) and 73 nM on 5HT7 (setting [2]).
For `C=Cc1ccc2[nH]cc3c2c1OCC(N(C)C)C3` (stereo not shown) [Compound 40, Dimethyl-(5-vinyl-2,7,8,9-tetrahydro-6-oxa-2-azabenzo[cd]azulen-8-yl)amine], the Ki on 5HT1A (setting [1]) was 15 nM; on 5HT6, 32 nM; on 5HT7 (setting [2]), 74 nM.
In the case of `CSc1ccc2[nH]cc3c2c1OCC(N(C)C)C3` (stereo not shown) [Compound 46-3], the melting point was 112 to 113 °C. Besides, at 5HT1A, the Ki came out at 18 nM.
